Data published in the kinase profiling compilation of Christmann-Franck et al. (2016).

How the values were obtained:
Assay in all cases: KINOMEscan competition binding
Details in all cases: compound 10.0 µM
[1] = molecular target: CAMKK2 (human) (UniProt Q96RR4)
[2] = molecular target: SRPK2 (human) (UniProt P78362)
[3] = molecular target: CDK19 (human) (UniProt Q9BWU1)
[4] = molecular target: PRKD2 (human) (UniProt Q9BZL6)
[5] = molecular target: SYK (human) (UniProt P43405)
[6] = molecular target: IKBKE (human) (UniProt Q14164)
[7] = molecular target: CHEK2 (human) (UniProt O96017)
[8] = molecular target: MAPK3 (human) (UniProt P27361)
[9] = molecular target: NEK5 (human) (UniProt Q6P3R8)
Chain of NEK5 (human) (Q6P3R8 whole entry, looked up): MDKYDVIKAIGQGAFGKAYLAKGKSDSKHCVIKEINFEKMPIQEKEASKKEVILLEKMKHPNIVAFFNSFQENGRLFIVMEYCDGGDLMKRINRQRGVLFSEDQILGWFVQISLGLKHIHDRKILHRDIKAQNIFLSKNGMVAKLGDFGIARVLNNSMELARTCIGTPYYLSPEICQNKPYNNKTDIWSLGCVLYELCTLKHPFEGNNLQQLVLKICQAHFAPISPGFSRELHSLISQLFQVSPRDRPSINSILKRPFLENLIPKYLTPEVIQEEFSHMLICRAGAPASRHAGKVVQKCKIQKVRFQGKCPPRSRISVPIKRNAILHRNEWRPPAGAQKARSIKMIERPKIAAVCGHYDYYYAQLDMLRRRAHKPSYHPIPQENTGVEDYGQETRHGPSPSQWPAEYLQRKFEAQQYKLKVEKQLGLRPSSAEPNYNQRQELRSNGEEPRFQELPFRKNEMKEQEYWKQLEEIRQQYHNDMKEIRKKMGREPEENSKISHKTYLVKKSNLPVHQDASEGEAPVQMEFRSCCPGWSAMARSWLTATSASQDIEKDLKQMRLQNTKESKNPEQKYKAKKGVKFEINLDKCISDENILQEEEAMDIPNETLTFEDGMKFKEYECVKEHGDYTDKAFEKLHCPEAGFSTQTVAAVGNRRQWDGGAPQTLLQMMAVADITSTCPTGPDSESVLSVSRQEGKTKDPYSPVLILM

[10] = molecular target: PAK2 (human) (UniProt Q13177)
[11] = molecular target: ROCK2 (human) (UniProt O75116)
[12] = molecular target: CDK3 (human) (UniProt Q00526)
Chain of CDK3 (human) (Q00526 whole entry, looked up): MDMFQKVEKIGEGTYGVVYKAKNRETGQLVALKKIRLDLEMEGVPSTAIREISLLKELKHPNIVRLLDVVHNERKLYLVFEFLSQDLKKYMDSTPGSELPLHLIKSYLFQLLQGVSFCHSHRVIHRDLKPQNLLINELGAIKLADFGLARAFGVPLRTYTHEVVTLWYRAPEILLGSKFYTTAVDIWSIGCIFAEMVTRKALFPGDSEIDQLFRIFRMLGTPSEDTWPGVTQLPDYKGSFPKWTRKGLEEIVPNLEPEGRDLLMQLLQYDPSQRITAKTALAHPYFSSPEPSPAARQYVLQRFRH

[13] = molecular target: FYN (human) (UniProt P06241)
[14] = molecular target: EPHA4 (human) (UniProt P54764)
[15] = molecular target: MAP3K5 (human) (UniProt Q99683)
Chain of MAP3K5 (human) (Q99683 whole entry, looked up): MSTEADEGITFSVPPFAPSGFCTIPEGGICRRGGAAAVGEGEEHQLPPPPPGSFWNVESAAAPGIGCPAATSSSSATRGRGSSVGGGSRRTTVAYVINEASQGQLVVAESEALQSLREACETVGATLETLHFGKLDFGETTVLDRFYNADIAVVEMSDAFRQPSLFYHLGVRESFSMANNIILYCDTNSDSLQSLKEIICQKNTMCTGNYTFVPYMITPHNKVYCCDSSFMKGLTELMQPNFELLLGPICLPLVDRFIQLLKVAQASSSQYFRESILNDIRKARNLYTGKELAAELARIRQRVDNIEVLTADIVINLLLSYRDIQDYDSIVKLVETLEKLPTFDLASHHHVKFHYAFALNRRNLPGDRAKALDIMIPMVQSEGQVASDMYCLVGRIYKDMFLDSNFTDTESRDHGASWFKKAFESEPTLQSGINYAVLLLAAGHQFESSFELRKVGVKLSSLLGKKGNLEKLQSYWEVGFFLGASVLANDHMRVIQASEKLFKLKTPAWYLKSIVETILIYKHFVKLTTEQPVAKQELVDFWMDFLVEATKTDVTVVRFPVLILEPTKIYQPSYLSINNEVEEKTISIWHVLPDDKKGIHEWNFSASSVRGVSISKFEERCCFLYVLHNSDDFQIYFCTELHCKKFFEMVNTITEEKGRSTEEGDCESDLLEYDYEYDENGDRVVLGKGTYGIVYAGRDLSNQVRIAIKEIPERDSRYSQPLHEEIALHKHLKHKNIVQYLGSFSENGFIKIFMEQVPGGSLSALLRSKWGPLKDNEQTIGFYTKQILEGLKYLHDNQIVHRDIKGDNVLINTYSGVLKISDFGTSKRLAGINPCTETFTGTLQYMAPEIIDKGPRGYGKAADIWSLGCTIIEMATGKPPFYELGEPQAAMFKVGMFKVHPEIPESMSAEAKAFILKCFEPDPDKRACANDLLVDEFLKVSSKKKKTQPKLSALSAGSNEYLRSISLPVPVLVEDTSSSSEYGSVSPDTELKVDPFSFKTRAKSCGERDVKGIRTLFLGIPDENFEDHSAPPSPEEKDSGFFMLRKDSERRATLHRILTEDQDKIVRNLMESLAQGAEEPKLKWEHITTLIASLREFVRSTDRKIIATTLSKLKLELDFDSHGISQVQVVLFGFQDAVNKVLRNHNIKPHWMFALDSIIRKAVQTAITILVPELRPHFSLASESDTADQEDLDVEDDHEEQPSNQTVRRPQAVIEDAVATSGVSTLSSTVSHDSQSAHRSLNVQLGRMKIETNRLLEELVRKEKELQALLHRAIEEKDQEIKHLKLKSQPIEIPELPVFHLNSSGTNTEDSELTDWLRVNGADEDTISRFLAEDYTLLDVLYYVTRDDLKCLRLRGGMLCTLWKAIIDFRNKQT

[16] = molecular target: SIK1 (human) (UniProt P57059)
[17] = molecular target: TYK2 JH2 pseudokinase (human) (UniProt P29597)
Chain of TYK2 JH2 pseudokinase (human) (P29597 whole entry, looked up): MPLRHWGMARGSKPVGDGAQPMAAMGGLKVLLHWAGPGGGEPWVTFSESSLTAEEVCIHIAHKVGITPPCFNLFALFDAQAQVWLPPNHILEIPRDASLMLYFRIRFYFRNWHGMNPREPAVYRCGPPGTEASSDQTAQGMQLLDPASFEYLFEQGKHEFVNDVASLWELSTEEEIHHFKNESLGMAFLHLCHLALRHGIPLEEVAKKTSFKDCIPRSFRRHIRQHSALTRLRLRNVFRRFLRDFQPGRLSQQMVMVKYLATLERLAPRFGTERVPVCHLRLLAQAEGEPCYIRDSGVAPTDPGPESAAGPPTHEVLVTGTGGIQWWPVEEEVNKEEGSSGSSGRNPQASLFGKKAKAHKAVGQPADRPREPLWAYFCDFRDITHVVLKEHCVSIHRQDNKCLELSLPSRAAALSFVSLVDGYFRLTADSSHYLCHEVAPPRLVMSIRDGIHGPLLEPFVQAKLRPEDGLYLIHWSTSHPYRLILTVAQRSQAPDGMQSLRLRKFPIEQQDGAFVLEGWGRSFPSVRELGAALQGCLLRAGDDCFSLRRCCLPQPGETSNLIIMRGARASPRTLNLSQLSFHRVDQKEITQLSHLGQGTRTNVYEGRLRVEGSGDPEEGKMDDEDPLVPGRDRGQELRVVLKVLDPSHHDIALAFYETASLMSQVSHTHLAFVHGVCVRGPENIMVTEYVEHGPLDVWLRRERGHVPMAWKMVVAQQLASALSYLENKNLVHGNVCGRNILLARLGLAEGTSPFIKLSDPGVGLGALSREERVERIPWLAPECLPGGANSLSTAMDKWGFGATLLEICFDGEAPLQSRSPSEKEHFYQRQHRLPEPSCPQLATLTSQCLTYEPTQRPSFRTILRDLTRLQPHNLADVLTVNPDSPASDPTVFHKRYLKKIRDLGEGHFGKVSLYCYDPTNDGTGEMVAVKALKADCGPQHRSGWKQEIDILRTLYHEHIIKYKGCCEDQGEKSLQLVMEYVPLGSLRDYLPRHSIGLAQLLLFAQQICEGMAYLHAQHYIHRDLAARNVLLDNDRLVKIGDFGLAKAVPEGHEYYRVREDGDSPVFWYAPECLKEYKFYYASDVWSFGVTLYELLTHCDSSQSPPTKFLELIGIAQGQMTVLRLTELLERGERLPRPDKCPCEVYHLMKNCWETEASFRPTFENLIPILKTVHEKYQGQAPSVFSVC

[18] = molecular target: RPS6KA5 KD1 (human) (UniProt O75582)
[19] = molecular target: EPHA2 (human) (UniProt P29317)
[20] = molecular target: KDR (human) (UniProt P35968)
[21] = molecular target: MAP2K1 (human) (UniProt Q02750)
Chain of MAP2K1 (human) (Q02750 whole entry, looked up): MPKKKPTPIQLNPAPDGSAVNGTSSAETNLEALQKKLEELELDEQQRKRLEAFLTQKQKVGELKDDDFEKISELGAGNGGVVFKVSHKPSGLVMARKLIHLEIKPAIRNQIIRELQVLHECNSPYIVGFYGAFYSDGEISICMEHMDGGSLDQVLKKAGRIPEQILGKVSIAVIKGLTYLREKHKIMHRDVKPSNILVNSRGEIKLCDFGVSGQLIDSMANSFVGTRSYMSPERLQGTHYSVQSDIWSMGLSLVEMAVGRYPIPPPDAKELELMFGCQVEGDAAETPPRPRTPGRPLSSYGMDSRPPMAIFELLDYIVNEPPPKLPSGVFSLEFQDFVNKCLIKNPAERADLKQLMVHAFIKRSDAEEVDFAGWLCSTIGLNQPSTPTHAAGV

[22] = molecular target: GSK3A (human) (UniProt P49840)
[23] = molecular target: ALK (human) (UniProt Q9UM73)
[24] = molecular target: PIP5K1A (human) (UniProt Q99755)
[25] = molecular target: CLK2 (human) (UniProt P49760)
[26] = molecular target: MAPK9 (human) (UniProt P45984)
[27] = molecular target: MARK2 (human) (UniProt Q7KZI7)
[28] = molecular target: LTK (human) (UniProt P29376)
[29] = molecular target: MAP2K3 (human) (UniProt P46734)
Chain of MAP2K3 (human) (P46734 whole entry, looked up): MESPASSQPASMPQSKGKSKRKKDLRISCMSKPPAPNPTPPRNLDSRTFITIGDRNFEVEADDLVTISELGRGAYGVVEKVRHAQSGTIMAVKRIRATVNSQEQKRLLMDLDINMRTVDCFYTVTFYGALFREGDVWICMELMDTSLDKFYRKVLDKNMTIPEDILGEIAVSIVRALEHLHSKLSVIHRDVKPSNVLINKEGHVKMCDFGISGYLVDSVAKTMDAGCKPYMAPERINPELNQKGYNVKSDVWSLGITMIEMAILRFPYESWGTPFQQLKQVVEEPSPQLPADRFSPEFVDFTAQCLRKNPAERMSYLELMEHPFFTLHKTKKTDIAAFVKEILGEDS

[30] = molecular target: MAP3K3 (human) (UniProt Q99759)
[31] = molecular target: MAPK11 (human) (UniProt Q15759)
[32] = molecular target: STK17B (human) (UniProt O94768)
[33] = molecular target: YES1 (human) (UniProt P07947)
[34] = molecular target: CHUK (human) (UniProt O15111)
[35] = molecular target: ACVR2B (human) (UniProt Q13705)
Chain of ACVR2B (human) (Q13705 whole entry, looked up): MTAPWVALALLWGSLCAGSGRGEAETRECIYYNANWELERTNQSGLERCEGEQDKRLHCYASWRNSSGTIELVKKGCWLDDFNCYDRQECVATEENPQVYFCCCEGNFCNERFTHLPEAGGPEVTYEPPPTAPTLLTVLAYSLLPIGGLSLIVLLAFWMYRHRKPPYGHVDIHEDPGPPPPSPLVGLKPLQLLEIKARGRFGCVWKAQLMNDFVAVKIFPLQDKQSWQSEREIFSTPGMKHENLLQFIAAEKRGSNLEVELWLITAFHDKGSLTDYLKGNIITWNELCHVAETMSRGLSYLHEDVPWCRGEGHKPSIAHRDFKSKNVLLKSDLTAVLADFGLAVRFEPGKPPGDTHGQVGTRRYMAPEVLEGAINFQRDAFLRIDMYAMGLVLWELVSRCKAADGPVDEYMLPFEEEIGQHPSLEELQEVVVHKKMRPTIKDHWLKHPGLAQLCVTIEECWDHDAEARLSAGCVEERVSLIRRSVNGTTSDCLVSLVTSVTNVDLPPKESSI

[36] = molecular target: SGK110 (human) (UniProt P0C264)
[37] = molecular target: PRKX (human) (UniProt P51817)
[38] = molecular target: ACVR1B (human) (UniProt P36896)
[39] = molecular target: TESK1 (human) (UniProt Q15569)
[40] = molecular target: STK36 (human) (UniProt Q9NRP7)

Structure (SMILES) | kinase still bound, per cent of control [1] | kinase still bound, per cent of control [2] | kinase still bound, per cent of control [3] | kinase still bound, per cent of control [4] | kinase still bound, per cent of control [6] | kinase still bound, per cent of control [7] | kinase still bound, per cent of control [8] | kinase still bound, per cent of control [9] | kinase still bound, per cent of control [10] | kinase still bound, per cent of control [11] | kinase still bound, per cent of control [12] | kinase still bound, per cent of control [13] | kinase still bound, per cent of control [14] | kinase still bound, per cent of control [15] | kinase still bound, per cent of control [16] | kinase still bound, per cent of control [17] | kinase still bound, per cent of control [18] | kinase still bound, per cent of control [19] | kinase still bound, per cent of control [21] | kinase still bound, per cent of control [22] | further results
Cc1ccc2nc(NCCN)c3ncc(C)n3c2c1 | 93% | 89% | 100% | 72% | 100% | 97% | 97% | 100% | 94% | 100% | 100% | 100% | 100% | 80% | 100% | 15% | 100% | 93% | 100% | 100% | kinase still bound, per cent of control [5]: 100%; kinase still bound, per cent of control [20]: 100%; kinase still bound, per cent of control [23]: 100%; kinase still bound, per cent of control [24]: 92%; kinase still bound, per cent of control [25]: 54%; kinase still bound, per cent of control [26]: 44%; kinase still bound, per cent of control [27]: 100%; kinase still bound, per cent of control [28]: 95%; kinase still bound, per cent of control [29]: 95%; kinase still bound, per cent of control [30]: 100%; kinase still bound, per cent of control [31]: 87%; kinase still bound, per cent of control [32]: 100%; kinase still bound, per cent of control [33]: 100%; kinase still bound, per cent of control [34]: 86%; kinase still bound, per cent of control [35]: 100%; kinase still bound, per cent of control [36]: 100%; kinase still bound, per cent of control [37]: 86%; kinase still bound, per cent of control [38]: 97%; kinase still bound, per cent of control [39]: 79%
CCC(=O)N1CCN(c2ccc(-n3c(=O)ccc4cnc5ccc(-c6cnc7ccccc7c6)cc5c43)cc2C(F)(F)F)CC1 | 85% | 100% | 1.2% | 100% | 87% | 100% | 91% | 5.8% | 100% | 50% | 100% | 49% | 90% | 100% | 80% | 55% | 100% | 59% | 100% | 93% | kinase still bound, per cent of control [5]: 78%; kinase still bound, per cent of control [20]: 65%; kinase still bound, per cent of control [23]: 80%; kinase still bound, per cent of control [24]: 89%; kinase still bound, per cent of control [25]: 65%; kinase still bound, per cent of control [26]: 40%; kinase still bound, per cent of control [28]: 77%; kinase still bound, per cent of control [29]: 80%; kinase still bound, per cent of control [40]: 17%; kinase still bound, per cent of control [30]: 75%; kinase still bound, per cent of control [31]: 53%; kinase still bound, per cent of control [32]: 67%; kinase still bound, per cent of control [33]: 74%; kinase still bound, per cent of control [34]: 41%; kinase still bound, per cent of control [35]: 42%; kinase still bound, per cent of control [36]: 94%; kinase still bound, per cent of control [37]: 83%; kinase still bound, per cent of control [38]: 45%; kinase still bound, per cent of control [39]: 58%
CC[C@@H]1C(=O)N(C)c2cnc(Nc3ccc(C(=O)NC4CCN(C)CC4)cc3OC)nc2N1C1CCCC1 | 1.9% | 100% | 100% | 16% | 100% | 100% | 100% | 100% | 100% | 100% | 100% | 100% | 100% | 100% | 100% | 100% | 100% | 100% | 100% | 100% | kinase still bound, per cent of control [24]: 100%; kinase still bound, per cent of control [25]: 5.4%; kinase still bound, per cent of control [26]: 100%; kinase still bound, per cent of control [27]: 100%; kinase still bound, per cent of control [28]: 24%; kinase still bound, per cent of control [29]: 100%; kinase still bound, per cent of control [40]: 100%; kinase still bound, per cent of control [30]: 100%; kinase still bound, per cent of control [31]: 100%; kinase still bound, per cent of control [32]: 100%; kinase still bound, per cent of control [33]: 100%; kinase still bound, per cent of control [34]: 100%; kinase still bound, per cent of control [35]: 100%; kinase still bound, per cent of control [36]: 100%; kinase still bound, per cent of control [37]: 100%; kinase still bound, per cent of control [38]: 100%; kinase still bound, per cent of control [39]: 100%
